According to patent publication US6974800B1, “Formulations comprising an inhibitor of carboxypeptidase U and A thrombin inhibitor” (AstraZeneca AB, priority 1999, dated 2005):

Test system: lung fibrin deposition
Test: Lung fibrin deposition in the anaesthetized rat (endotoxin + batroxobin, 125I-fibrinogen)
Type: in vivo, rat (Sprague Dawley)
Experimental: Batroxobin No. 520 CRY (American Diagnostica Inc., Greenwich, Conn., USA) was kept at 8° C. both while lyophilized and when dissolved in saline to a concentration of 10 BU/ml. It was used within 5 days in the experiments. The remaining drug was freezed and kept at […] for a maximum of 30 days.
Endotoxin L-3129 (Sigma, St. Louis, Mo., USA) was dissolved in saline to a concentration of 50 μg/ml. A fresh solution was prepared for each experiment.
^125I-labelled human fibrinogen (Amersham, Little Chalfont, Buck., UK) was stored at 8° C. while lyophilized. After dissolving in saline/aq.dest. (80/20 v/v) to a stock solution of approx. 0.8 MBq/ml (20 μCi/ml) it was divided into aliquots (one for each experiment), quickly freezed and stored at −20° C. It was used in the experiments within 14 days after the production date.
The thrombin inhibitor inogatran was dissolved in 40% (w/w) cyclodextrin (HPβCD) to a concentration of 5 mg/ml and stored at −20° C. It was further diluted with 40% cyclo-dextrin before use in the different experiments. In the studies the drug was administered subcutaneously.
The thrombin inhibitor melagatran was dissolved in saline.
The CPU inhibitors […] and Compound A were dissolved in deoxygenated saline. The saline was deoxygenated by ultrasonication for 20 min and subsequently by passing nitrogen for another 20 min. The solutions were always fresh-made for each experiment. The CPU inhibitor was administered to the rats as an i.v. infusion for 5 min.
Male rats of the Sprague Dawley strain (Charles River, Sweden) with a body weight of 325–425 g were used in these experiments. The animals were allowed to accommodate at AstraZeneca R&D, Mölndal, Sweden for 1 week before use.
Anaesthesia was induced and maintained by Inactin 100 mg/kg i.p.
Two catheters were inserted in the left jugular vein, one for administration of ^125I-fibrinogen and batroxobin and the other for administration of endotoxin and CPU inhibitor or their corresponding vehicles. A third catheter was inserted in the carotid artery for blood sampling and measurement of the mean arterial blood pressure and heart rate. To avoid blood clots in the arterial catheter a slow saline infusion (approx. 1.0 ml/kg*h) was maintained throughout the experiment. The rats were tracheotomized in order to facilitate spontaneous breathing. The body temperature was monitored and maintained at 38° C. by external heating.
The animals were given an i.v. injection of endotoxin (50 μg/kg) at the start of the experiment. Two hours later the thrombin inhibitor or its vehicle was injected subcutaneously and another 15 min later ^125I-fibrinogen (0.04 MBq) was given as an i.v. injection. An infusion lasting for five minutes of the CPU-inhibitor or its vehicle was started after 5 min. After 5 min, batroxobin (10 BU/kg) was given as an i.v. bolus injection for one minute.
Blood samples for determination of ^125I-content were taken in all experiments just before and 5, 20 and 30 min after the batroxobin administration. At the end of the experiment the lungs were excised, the tissue was gently washed in saline and thereafter blotted and weighed. The ^125I-content in the tissue and blood samples was determined, using a Wallac 1282 Compugamma counter. The ^125I-concentration in plasma and in the lungs was expressed as a percentage of the radioactivity in the reference arterial blood sample taken just prior to the batroxobin injection.
For each of the four different dose combinations, only CPU inhibitor, only thrombin inhibitor, thrombin inhibitor together with CPU inhibitor at 0.2 and 0.28 μmol/kg respectively, separate E-max models were fitted. The models were fitted on a logarithmic scale giving estimates of the median effective dose, i.e., the dose where half of the population has 50% effect.

SMILES: N=C(N)NCCCNC(=O)[C@@H]1CCCCN1C(=O)[C@@H](CC1CCCCC1)NCC(=O)O [inogatran, HOOC—CH2—(R)Cha-Pic-Nag-H]
- Remaining fibrin after treatment (Table I, thrombin inhibitor alone, 2.3 μmol/kg s.c.): 94 ± 20.2 n = 6%
- Remaining fibrin after treatment (Table I, thrombin inhibitor alone, 3.4 μmol/kg s.c.): 72 ± 23.6 n = 6%
- Remaining fibrin after treatment (Table I, thrombin inhibitor alone, 5.7 μmol/kg s.c.): 41 ± 20.3 n = 6%
- Remaining fibrin after treatment (Table I, thrombin inhibitor alone, 17.2 μmol/kg s.c.): 39 ± 15.9 n = 6%

SMILES: N=C(N)c1ccc(CNC(=O)[C@@H]2CCN2C(=O)[C@H](NCC(=O)O)C2CCCCC2)cc1 [melagatran, HOOC—CH2—(R)Cgl-Aze-Pab-H]
- Remaining fibrin after treatment (Table II, thrombin inhibitor alone, 0.23 μmol/kg s.c.): 97 ± 12.4 n = 6%
- Remaining fibrin after treatment (Table II, thrombin inhibitor alone, 0.35 μmol/kg): 77 ± 22.4 n = 4%
- Remaining fibrin after treatment (Table II, thrombin inhibitor alone, 0.58 μmol/kg): 62 ± 17.0 n = 2%
- Remaining fibrin after treatment (Table II, thrombin inhibitor alone, 1.75 μmol/kg): 31 ± 13.3 n = 4%
- Remaining fibrin after treatment (Table II, thrombin inhibitor alone, 3.5 μmol/kg): 55 ± 21.7 n = 4%
- Remaining fibrin after treatment (Table III, thrombin inhibitor alone, 0.18 μmol/kg): 110 ± 15.2 n = 3%
- Remaining fibrin after treatment (Table III, thrombin inhibitor alone, 0.23 μmol/kg): 98 ± 11.5 n = 7%
- Remaining fibrin after treatment (Table III, thrombin inhibitor alone, 0.30 μmol/kg): 87 ± 27.6 n = 3%
- Remaining fibrin after treatment (Table III, thrombin inhibitor alone, 0.35 μmol/kg): 77 ± 22.4 n = 4%

SMILES: N=C(N)NCCSCC(CS)C(=O)O (racemic) [MERGETPA, DL-2-mercaptomethyl-3-guanidinoethylthiopropanoic acid]
- Remaining fibrin after treatment (Table I, CPU inhibitor alone, 8.4 μmol/kg i.v. infusion, 100% = no effect): 90 ± 18.1%
- Remaining fibrin after treatment (Table I, CPU inhibitor alone, 21.1 μmol/kg i.v. infusion): 37 ± 19.3%
- Remaining fibrin after treatment (Table I, CPU inhibitor alone, 33.7 μmol/kg i.v. infusion): 23 ± 17.3%

SMILES: Nc1ccc(CC(CS)C(=O)O)cn1 (stereo not drawn) [compound A, 3-(6-amino-pyridin-3-yl)-2-mercaptomethyl-propanoic acid]
- Remaining fibrin after treatment (Table II, CPU inhibitor alone, 0.20 μmol/kg i.v. infusion): 100 ± 25.8%
- Remaining fibrin after treatment (Table II, CPU inhibitor alone, 0.28 μmol/kg): 88 ± 23.2%
- Remaining fibrin after treatment (Table II, CPU inhibitor alone, 0.4 μmol/kg): 87 ± 50.6 n = 6%
- Remaining fibrin after treatment (Table II, CPU inhibitor alone, 2.0 μmol/kg): 49 ± 30.0 n = 7%
- Remaining fibrin after treatment (Table II, CPU inhibitor alone, 4.0 μmol/kg): 15 ± 9.3 n = 4%
- Remaining fibrin after treatment (Table II, CPU inhibitor alone, 20.0 μmol/kg): 7 ± 1.4 n = 2%
- Remaining fibrin after treatment (Table III, CPU inhibitor alone, 0.20 μmol/kg): 97 ± 24.1%
- Remaining fibrin after treatment (Table III, CPU inhibitor alone, 0.28 μmol/kg): 81 ± 24.5%
